Data set [1] concerns Human embryonic stem cell H9 lines carrying MYH6-mCherry reporters. The data set is described as follows: hESC cardiogenesis assay. The class given is cell-based. The note with it: hESCs, dose-response behaviour.
Data set [2] is described as follows: Chemical stability in phosphate buffer. In kind it is physicochemical. The note with it: 10 μM, phosphate buffer pH 7.4, up to 30 hours, HPLC.
Data set [3] deals with HEK293T cells.
Data set [4] relates to Human embryonic stem cell H9 lines carrying MYH6-mCherry reporters. The note with it: hESCs; cited from earlier work.
The test system of data set [5] is β-catenin-dependent canonical Wnt pathway. The data set is described as follows: Wnt inhibition assay. In kind it is cell-based, human. The following applies: Homo sapiens, HEK-293T, Wnt inhibition, HEK293T cells.

pIC50: −log10 of the molar value.

As to `CC(=O)c1ccccc1NC(=O)[C@H]1CC[C@H](N2C(=O)[C@@H]3[C@@H]4CC[C@@H](C4)[C@@H]3C2=O)CC1` [Compound 28, 4-(cis-endo-1,3-Dioxooctahydro-2H-4,7-methanoisoindol-2-yl)-N-(2-acetylphenyl)-trans-cyclohexyl carboxamide], in data set [1], the “induction of cardiogenesis (class in words)” value was “potent stimulators of cardiogenesis”. For the same compound, in data set [2], the “degradation in phosphate buffer” value was “No degradation was observed”.

As to `Oc1nc(-c2ccc(C(F)(F)F)cc2)nc2c1CSCC2` [Compound 2], the cell toxicity result in data set [3] is recorded as “did not induce cell toxicity”. Also, in data set [4], the “fold less potent than 1 and 3 (cardiogenesis)” value was “about 1.5 fold”; the “maximum efficacious concentration for cardiogenesis” value is 2 µM.

`O=C1[C@@H]2[C@@H]3CC[C@@H](C3)[C@@H]2C(=O)N1[C@H]1CC[C@H](C(=O)Nc2cccnc2)CC1` [Compound 32, 4-(cis-endo-(1,3-Dioxooctahydro-2H-4,7-methanoisoindol-2-yl))-N-(pyridin-3-yl)-trans-cyclohexyl carboxamide] had a negative logarithm of the IC50 (pIC50) in data set [5] of approximately 7.00. For the same compound, the “induction of cardiogenesis (class in words)” value in data set [1] was “functionally inactive as inducers of cardiogenesis”. The “degradation in phosphate buffer” value in data set [2] is listed as “No degradation was observed”.

These data come from paper PMC3335202 (Journal of Medicinal Chemistry, 2012).
